Target: Ar‐BVMO (Acinetobacter radioresistens, UniProt D7PBN2)
Assay: HPLC product detection
Type: biochemical
Details: 500 uM substrate, 500 uM NADPH, 0.7 uM enzyme, 37 C, 20 min

CCc1cc(C(N)=S)ccn1 [ethionamide]
HPLC product detection (ethionamide S-oxide): confirmed the presence of ethionamide S‐oxide product

Reference: paper PMC3815892 (Microbial biotechnology, 2012)
